Test results taken from paper PMC4949387 (Brain, 2015).

Key:
amyloid-β plaques = test: 18F-florbetapir PET scan in Alzheimer's disease patients; format: in vivo, human
amyloid-β [1] = settings: ref Joshi et al., 2012, cited from earlier work
amyloid-β [2] = settings: ref Choi et al., 2009; cited from earlier work
amyloid-β plaque = settings: preliminary clinical data; ref Kung et al., 2012; cited from earlier work
[3] = Alzheimer's disease (n = 3), PET 50–65 min post-injection

Structure (SMILES)	SUVR Anterior cingulate (amyloid-β plaques; [3])	SUVR Cortical average (amyloid-β plaques; [3])	SUVR Frontal cortex (amyloid-β plaques; [3])	SUVR Occipital cortex (amyloid-β plaques; [3])	SUVR Parietal cortex (amyloid-β plaques; [3])	SUVR Posterior cingulate (amyloid-β plaques; [3])	SUVR Subcortical white matter (amyloid-β plaques; [3])	SUVR Temporal cortex (amyloid-β plaques; [3])	18F-florbetapir scan, visual interpretation (amyloid-β plaques; subject AD01)	18F-florbetapir scan, visual interpretation (amyloid-β plaques; subject AD02)	18F-florbetapir scan, visual interpretation (amyloid-β plaques; subject AD03)	Mean cortical-to-cerebellar SUVR (amyloid-β [1]; Alzheimer's disease patients)	Greater SUVR in Alzheimer's disease patients relative to healthy controls (amyloid-β [1]) [%]	Kd (amyloid-β [2]) [nM]	Target-to-background ratio for amyloid-β plaque labelling (amyloid-β plaque)
CNc1ccc(/C=C/c2ccc(OCCOCCOCCF)nc2)cc1 [18F-florbetapir]	1.28 ± 0.05	1.31 ± 0.10	1.29 ± 0.13	1.12 ± 0.25	1.37 ± 0.21	1.48 ± 0.11	1.62 ± 0.16	1.32 ± 0.15	Positive	Positive	Positive	1.42 ± 0.24	42	3.7	
CN(C)c1ccc(-c2cn3cc([123I])ccc3n2)cc1 [123I-IMPY, ^123 I-2-(4′-dimethylaminophenyl)-6-iodo-imidazo[1,2-a]pyridine]															not as robust as that of PET tracers
